# PMC12040169 (PLOS Biology, 2025)
# Test: in vitro
# Details: human, hela cells, % viability
row,Compound,"viability at 28.5 h, 10 µM [%]"
1,O=C(C1CCN(S(=O)(=O)c2ccccc2)CC1)N1CCN(Cc2ccc3c(c2)OCO3)CC1 [CBK265713],104
2,CN1CCN(C(=O)CN(c2ccccc2)S(=O)(=O)N(C)C)CC1 [CBK268079],86.6
3,CCOc1ccc(-c2cncc(N[C@@H](C)c3ccccc3)n2)cc1 [CBK065720],106
4,O=C(O)c1ccc(N2C(=O)C(O)=C(C(=O)c3ccccc3)C2c2cccc([N+](=O)[O-])c2)cc1 (centres unmarked) [CBK263760],92.5
5,CCC(CC)C(=O)N(C)c1c(C)nc2ccc(C(=O)N3CCN(S(=O)(=O)CC)CC3)cn12 [CBK146524],92
6,O=C(O)CCc1nc2ccccc2n1C1CCCCC1 [CBK286961],87.5
7,CCc1ccccc1C(=O)N1CCCCC1CC (centres unmarked) [CBK081556],81.9
8,O=C1CN(C(=O)NCc2cccc3ccccc23)CCN1 [CBK155852],102
9,COc1ccc([C@@]23CC[C@@H](NC(=O)c4ccc5c(c4)OC(F)(F)O5)C[C@@H]2N(C)CC3)cc1OC [CBK076658T],108
10,CN(C)Cc1cc(C(C)(C)C)cc(CN(C)C)c1O [CBK266994],98.4
11,O=C(COc1cccnc1)N1CCN(c2ccccc2)CC1 [CBK200210],106
12,CC(C)C(=O)NC(NC(=S)Nc1sc2c(c1C(N)=O)CCCC2)C(Cl)(Cl)Cl (centres unmarked) [CBK261050],94
13,c1cncc(COc2ccnc(N3CCCN(Cc4ccc5c(c4)OCO5)CC3)n2)c1 [CBK084112],92.5
14,Cc1cc(CNC(=O)N(C)C2CCN(C)C2)no1 (centres unmarked) [CBK155992],103
15,CN(C)CCNC(=O)c1cc(-c2cccnc2)nc2c(Cl)cccc12 [CBK267761],112
16,CCOc1cc(NC(=O)N2CCC(Cc3cnn(C)c3)C2)ccc1C (centres unmarked) [CBK305295],105
17,O=C(NCCN1CCOCC1)c1ccc(-c2ccco2)nc1NCc1cccnc1 [CBK076112],101
18,CCCC/C=C/c1cncc(N2CCCC2CO)n1 (centres unmarked) [CBK065402],91.8
19,O=C(O)c1cccc(CSc2nnc(Cc3ccccc3)[nH]2)c1 [CBK268029],94.1
20,O=C(Nc1ccc(F)cc1)N1Cc2nc[nH]c2C[C@H]1c1nc(-c2ccc(F)cc2)no1 [CBK288970],95
21,CCNC(=O)N[C@H]1CO[C@H]2[C@@H]1OC[C@@H]2Nc1nccc(-c2cccc(F)c2)n1 [CBK289536],91.1
22,Cc1cc(COc2cc(N3CCCC3)ncn2)no1 [CBK115898],93.1
23,CC(=O)N1CCOC(CNc2nc(C(C)(C)C)nc3c2cnn3C)C1 (centres unmarked) [CBK307469],89.4

row,Compound,"viability at 28.5 h, 10 µM [%]"
1,CCC(NC(=O)c1csc2c1CCCC2)c1ccccc1 (centres unmarked) [CBK059006],108
2,O=[N+]([O-])c1nn(-c2ccc3c(c2)OCCO3)[n+]([O-])c1NCCN1CCN(c2ccccc2F)CC1 [CBK268314],109
3,COc1cc(C#N)ccc1Oc1nnnn1-c1ccccc1 [CBK002571],93.1
4,CCCn1nc(C)c(-c2cncn2CCc2c(C)nn(C)c2C)c1C [CBK281475],91.5
5,Cc1ccc(SCCNS(=O)(=O)c2ccc3ccccc3c2)cc1 [CBK267504],88
6,Cn1c(Cc2nn(C)c(=O)c3ccccc23)nnc1SCC(=O)C(C)(C)C [CBK010985],105
7,CSCCCNC(=O)c1cncc(-c2ccc(C(=O)N3CCOCC3)cc2)c1 [CBK158610],92.7
8,O=C1CN(C(=O)CCn2c(C(F)(F)F)cc3cccnc32)CCN1 [CBK284888],92.8
9,O=C(CSc1cnn[nH]1)Nc1ccccc1F [CBK269903],101
10,Cc1ccc(C(=O)N(C)C2CCCCC2)cc1C [CBK083667],137
11,N#Cc1nc(-c2ccccc2F)oc1NCCCN1CCOCC1 [CBK265881],107
12,Cc1ccc(-c2nc3ncc(C#N)c(N)n3n2)cc1 [CBK288153],106
13,COc1cnc(-c2cccc(C(=O)N(C)C)c2)c(NC(=O)c2ccccc2)n1 [CBK145385],102
14,COc1cccc(-c2cccc(NS(=O)(=O)c3ccc4c(c3)CCC(=O)N4)c2)c1 [CBK286372],105
15,Cc1cc(C)n(C(=O)CCNS(=O)(=O)c2ccc(Cl)cc2)n1 [CBK269348],111
16,Cc1ccc(C(=O)C2=C(O)C(=O)N(Cc3cccnc3)C2c2cccc([N+](=O)[O-])c2)cc1 (centres unmarked) [CBK264593],89.3
17,O=C(O)CCN1C(=O)COc2ccc(Cl)cc21 [CBK287192],107
18,Cn1c(CN2CCN(C(=O)NC3CCCCC3)CC2)nc2cc([N+](=O)[O-])ccc21 [CBK268266],97.1
19,CCc1nnc(NC(=O)CCc2ccccc2)s1 [CBK057943],86.1
20,COC(=O)CCC(=O)N1CCc2c([nH]c3ccccc23)C12CCN(CCCc1ccccc1OC)C2 (centres unmarked) [CBK074952],93.9
21,COc1ccc(-n2c(SCCCN3C(=O)c4cccc5cccc(c45)C3=O)nnc2-c2ccncc2)cc1 [CBK269123],94.2
22,COc1ccc(CC(=O)N2CCCC(c3cc4ncccc4[nH]3)C2)cc1 (centres unmarked) [CBK283418],94.5
23,COc1ccc(CC(=O)NCCc2nnc3ccccn23)cc1 [CBK304613],74.7

row,Compound,"viability at 28.5 h, 10 µM [%]"
1,CCCc1n[nH]c(-c2c(F)cccc2F)c1C(=O)OCC [CBK113546],92.7
2,CN(C)CCN(C)c1cncc(-c2ccc3c(c2)OCO3)n1 [CBK065897],101
3,Cc1ccc(S(=O)(=O)N(C)CC(=O)N(C)Cc2ccccc2)cc1 [CBK264201],95.5
4,Cc1cc(=O)[nH]c(SCCC(=O)O)n1 [CBK268242],106
5,Cc1cc(C)n(C(C(=O)NCCOc2ccc(F)cc2)C(C)C)n1 (centres unmarked) [CBK281595],81.4
6,Cc1ccccc1NS(=O)(=O)c1ccc(OCC(=O)N2CCN(c3cc(Cl)ccc3C)CC2)cc1 [CBK267649],94.5
7,CCOc1cc(-c2nc3sc(CC)cc3c(=O)[nH]2)ccc1OCC(=O)O [CBK298291],88.4
8,O=S(=O)(Nc1nnn[nH]1)c1ccc(Cl)c(Cl)c1 [CBK062387],106
9,CCOc1ccccc1NC(=O)Nc1ncccc1C [CBK267140],85.3
10,O=C(O)CCc1ccc(-c2cn3ccnc3c(NCc3ccncc3)n2)cc1 [CBK038022],90.6
11,Cc1cc(COc2nccnc2OC2CCN(Cc3ccccc3F)CC2)no1 [CBK082948T],109
12,Nc1ncc(-c2ccoc2)nc1-c1ccc(C(=O)O)cc1 [CBK063972],89.6
13,Cc1ccccc1-c1csc2c(=O)[nH]c(N3CCC4(CC3)OCCO4)nc12 [CBK291141],96.9
14,CC1(C)CC(=O)c2sc(NC(=O)Cc3ccc(Cl)c(Cl)c3)nc2C1 [CBK144103],93.7
15,CC(Cc1c[nH]c2ccccc12)NC(=O)CSS(=O)(=O)O (centres unmarked) [CBK260942N],93.3
16,O=C(CC(CN1CCN(c2ccccn2)CC1)C(=O)O)NCc1ccccc1 (centres unmarked) [CBK286649],89
17,COc1cccc(CNC(=O)NC(=O)C2CCN(C)CC2)c1 [CBK034828],91.9
18,CCCCOc1ccc(C(=O)N/C(=C/c2ccco2)C(=O)Nc2cccc(C(=O)O)c2)cc1 [CBK300491],92.4
19,CCOc1ccsc1C(=O)N1CCN(CC)CC1 [CBK200250],125
20,CN(CC1CCCCC1)C(=O)c1cc2ccsc2[nH]1 [CBK304518],91.4
21,O=C(CSCc1nc(O)c2c3c(sc2n1)CCCC3)Nc1ccc(F)cc1 [CBK265568],106
22,CCCS(=O)(=O)n1c(=O)n(CC(=O)c2ccccc2OC)c2ccccc21 [CBK106498],93.1
23,O=C(NC(Cc1ccccc1)C(=O)O)c1ccc(Cl)cc1 (centres unmarked) [CBK264677],96.1

row,Compound,"viability at 28.5 h, 10 µM [%]"
1,Cc1nn(C)c(N2CCNCC2)c1NC(=O)/C=C/c1cccnc1 [CBK050354T],95.4
2,CN(C(=O)CN1CCCC1Cn1cccn1)C1(C#N)CCCCC1 (centres unmarked) [CBK304571],88.6
3,Cc1ccc(SCCCn2ccnc2)cc1 [CBK269733C],86.3
4,CC(C)(c1ccc(OC(=O)c2ccc(N)cc2)cc1)c1ccc(OC(=O)c2ccc(N)cc2)cc1 [CBK260962],91.2
5,CC(NCCCN(C)C)=C1C(=O)c2ccccc2C1=O [CBK262674],81.6
6,CN(C)CCSc1cncc(N2CCCC2)n1 [CBK105294],104
7,CCOC(=O)c1[nH]c(C)c(/C=C/C2=CCN(C)CC2)c1C [CBK283761],99.3
8,Cc1cccc(CC(=O)N2CCC(Cc3ccc(-c4cccc(C)c4)cc3)(C(N)=O)CC2)c1 [CBK285798],104
9,O=C(Nc1ccccc1)c1ccc(F)cc1-n1cnnn1 [CBK287903],111
10,CCN1CC(C(=O)Nc2nc3c(s2)CCCCCC3)CC1=O (centres unmarked) [CBK281526],84.2
11,CC1(C)CN(c2ccc(S(N)(=O)=O)cc2)C1=O [CBK020416],90.6
12,c1ccc(N2CCN(C3c4ccccc4Sc4ccccc43)CC2)cc1 [CBK066894],92.1
13,Cc1cc(C)c(C#N)c(N2CCOC3(CCN(C(=O)OCc4ccccc4)CC3)C2)n1 [CBK161114T],91
14,CN(Cc1cc(Br)cs1)C(=O)CCN1C(=O)COc2ccccc21 [CBK298308],90
15,Nc1ccc(C(=O)Nc2ccc(Nc3cc(-c4cc(C(F)(F)F)cc(C(F)(F)F)c4)ncn3)cc2)cc1 [CBK091091],94.8
16,COc1ccc(Oc2nccc(N3CCCN(CCc4ccc5ccccc5c4)CC3)n2)cc1OC [CBK084164],87
17,CCN(Cc1cccs1)C(=O)NC1CCCc2c1cnn2CCO (centres unmarked) [CBK305768],81.6
18,Fc1cc(Cl)ccc1NC(=S)NCCN1CCOCC1 [CBK268441],98.4
19,CN1CCN(c2nccnc2-c2ccccc2)CC1 [CBK088825],88.7
20,OC(CN1CCC(O)(c2ccccc2F)CC1)c1ccccc1 (centres unmarked) [CBK282490],107
